# According to patent US12566184B2, “Cell-free biosensors to detect creatinine, creatine, and sarcosine” (Georgia Tech Research Corporation, priority 2021, dated 2026):
# Tested on: colored probe product
# Assay: enzymatic creatinine assay with limited chemical probe (Amplex Red): stabilization of probe signal by antioxidants
# Format: biochemical
# Details: antioxidants added at different concentrations; chemical probe at low concentration
# Text: The existing assay is a purely enzymatic approach that translates the concentration of creatinine into a colorimetric change of varying intensity. It contains two enzymes. The first enzyme, creatininase, catalyzes the conversion of creatinine to creatine. The second enzyme, creatinase, catalyzes creatine to sarcosine. This bioconversion aspect of the assay can be maintained in both of the embodiments. In the existing assay, the sarcosine is then oxidized by sarcosine oxidase, generating hydrogen peroxide in the process. The fluorogenic peroxidase substrate Amplex Red, hereafter referred to as the “probe”, interacts with the generated hydrogen peroxide in the presence of horseradish peroxidase to produce the red-fluorescent product resorufin (see Yamkamon et al. Simultaneous determination of sarcosine and its related metabolites by gas chromatography-tandem mass spectrometry for prostate cancer diagnosis, EXCLI Journal, 2018). Resorufin accumulation leads to a visible color change with a linear response over physiological serum creatinine concentrations. However, there is significant day-to-day variability of unknown origin that affects the amplitude of the output, thus requiring (per manufacturer's instructions) a calibration curve to be run with every sample or batch of samples and complicating field deployment.
# In certain embodiments of the disclosed invention, the existing assay can be taken in its entirety and titrated down the amount of probe (fluorogenic peroxidase substrate, Amplex Red) so as to produce a sample-specific calibration curve. The probe concentration that corresponds with specific creatinine concentrations in calibration tests can be first identified using defined chemical mixtures and then implemented in a serum sample matrix to validate the sample-specific calibration curve. […] This method yields a set of reactions to which patient sample can be added, and regardless of the sample levels of creatinine, the calibration spots will all correspond to defined levels of creatinine. The reaction with excess probe can then be visually compared to the calibration spots to determine the creatinine level. In particular, a shift from colorless to red may be useful for a presence-absence or binary diagnostic test. For more accurate monitoring of intensity of color, a plate reader (e.g., spectrophotometer or fluorescence reader) can be used.
# Furthermore, in order to reduce the patient-to-patient variability in readouts, also known as matrix effects, where the molecule being measured may appear to be at a different concentration only due to interferences from other constituents of the solution, the inventors identified that the appropriate reagent to limit was not the enzymes in the chemical assay, but rather the chemical probe. However, when the concentration of the chemical probe was reduced to a low level to enable the calibration approach, a side reaction happened where probe that has been transformed from colorless into colored form undergoes a second reaction that brings it back to a colorless form. This made the signal “decay” and thus would lead to an underreporting of the target molecule's concentration.
row,Molecule,effect on decay of probe signal (transformation of colored probe product into colorless side product)
1,O=C1O[C@H]([C@@H](O)CO)C(O)=C1O [Vitamin C],preventing the decay of probe signal
2,Vitamin E,preventing the decay of probe signal
3,O=c1[nH]c(=O)c2[nH]c(=O)[nH]c2[nH]1 [uric acid],preventing the decay of probe signal
4,"Cc1c(C)c2c(c(C)c1O)CCC(C)(C(=O)O)O2 (racemic) [(±)-6-Hydroxy-2,5,7,8-tetramethylchromane-2-carboxylic acid]",preventing the decay of probe signal
5,N[C@@H](CCC(=O)N[C@@H](CS)C(=O)NCC(=O)O)C(=O)O [L-glutathione (reduced)],preventing the decay of probe signal
6,O=C(O)CC(O)(CC(=O)O)C(=O)O [citric acid],preventing the decay of probe signal
